According to patent US8715754B2, “Chromobacterium bioactive compositions and metabolites” (Marrone Bio Innovations, Inc., priority 2010, dated 2014):

Assays:
[1] = tested on: Cabbage Loopers, Trichoplusia ni; experiment: Synergy test on treated artificial diet, cabbage loopers; assay type: in vivo
Experimental: (§1) Synergy tests were performed by treating artificial diet in 96-well plates and feeding treated diet to neonate larvae. 100 μL of treatment were pipetted into multiple wells of each plate. […] The diet was fan-dried to remove excess moisture. Neonate Beet Armyworm, Spodoptera exigua, or Cabbage Loopers, Trichoplusia ni, were transferred into each well of the multi-well plate. Infested plates were covered with adhesive plate sealer and a single small hole was poked into the sealer over each well to allow for aeration. Plates were stored in an incubator at 26° C., 16 h light/8 h dark cycle for […]. On the third and fourth day after infesting, mortality was scored.
(§2) The determination of a synergistic, antagonistic, or additive interaction was determined using the methods from (Colby 1967). Due to variation in bioassays, it was determined that ratios between 0 and 0.9 would be considered antagonistic, 0.9-1.1 ratios would be additive, and ratios above 1.1 would be considered synergistic relationships.
MBI-203 synergy with insecticides against Cabbage Loopers was tested. Chlorantranilipole (marketed as Coragen®, Dupont), Bacillus thuringiensis var. kurstaki (Dipel®, Valent Biosciences), Spinosad (marketed as Entrust®, Dow Agro Sciences), Spirotetramet (marketed as Movento®, Bayer Crop Science) and Pyrethrum/pyrethrins (marketed as Pyganic®, Arbico Organics) were tested with MBI-203. As noted above, except where indicated, LC50 concentrations of MBI-203 and insecticides were used.

[2] = tested on: Beet Armyworm, Spodoptera exigua; experiment: Synergy test on treated artificial diet, beet armyworm; assay type: in vivo
Experimental: as §1, §2
MBI-203 synergy with insecticides against Beet Army Worm (BAW) was tested. Chlorantranilipole (marketed as Coragen®, Dupont), Bacillus thuringiensis var. kurstaki (Dipel®, Valent Biosciences), Spinosad (marketed as Entrust®, Dow Agro Sciences), Spirotetramet (marketed as Movento®, Bayer Crop Science) and Pyrethrum/pyrethrins (marketed as Pyganic®, Arbico Organics) were tested with MBI-203. As noted above, except where indicated, LC50 concentrations of MBI-203 and insecticides were used. […] Pyrethrum combinations with MBI-203 were antagonistic.

[3] = tested on: Cabbage looper (Trichoplusia ni) or Beet armyworm (Spodoptera exigua); experiment: Screening of fractions and pure compounds in feeding assay; assay type: in vivo; conditions: HPLC-purified compounds
Experimental: The culture broth derived from the 10-L fermentation C. substugae in L-broth is extracted with Amberlite XAD-7 resin (Asolkar et al., 2006) by shaking the cell suspension with resin at 225 rpm for two hours at room temperature. The resin and cell mass are collected by filtration through cheesecloth and washed with DI water to remove salts. The resin, cell mass, and cheesecloth are then soaked for 2 h in acetone/methanol (50/50) after which the acetone/methanol is filtered and dried under vacuum using rotary evaporator to give the crude extract. The crude extract is then fractionated by using Sephadex LH 20 size exclusion chromatography (CH2Cl2/CH3OH; 50/50) to give 7 fractions (FIG. 1). These fractions are then concentrated to dryness using rotary evaporator and the resulting dry residues are screened for biological activity using a feeding assay with Cabbage looper (Trichoplusia ni) or Beet armyworm (Spodoptera exigua). The active fractions are then subjected to reversed phase HPLC (Spectra System P4000 (Thermo Scientific) to give pure compounds, which are then screened in above mentioned bioassays to locate/identify the active compounds. To confirm the identity of the compound, additional spectroscopic data such as LC/MS and NMR is recorded.

[4] = tested on: Cabbage Looper (Trichoplusia ni); experiment: whole plant or invertebrate; assay type: in vivo
Experimental: Toxicity of the compound of interest in fraction 1 (F1) was confirmed in an in vitro assay using 1st instar cabbage looper larvae as a test object.
Two hundred microliters of commercial cabbage looper diet was distributed in each well of a 96-well microplate. After the diet had solidified, 100 uL of solution containing 50 uL of extract (corresponding to four individual peaks found in fraction 1; H1-H4), 350 uL EtOH and 600 uL sterile DI water was pipetted in each well, after which the plate was dried using a hand-held fan. The amount of extract in each well was 10 micrograms. Each treatment was replicated eight times, and a mixture of pure ethanol and water was used as a negative control.
One test insect (1st instar larvae of cabbage looper) was placed in each well, and the plate was covered with an adhesive seal. The seal was punctured for aeration, and the sealed plate was incubated at 26° C. for four days.
The 96-well plate assay system described in the previous example was used to determine the concentration of pure violacein needed to kill 50% of the 1st instar cabbage looper larvae. Based on the data, violacein is a potent insecticide with an estimated LC50 value of 7*10^−6 micrograms per well for cabbage looper larvae in an in vitro diet-overlay assay.

[5] = tested on: root knot nematode Meloidogyne sp.; experiment: Mini drench test, root galling of cucumber (Zeck's gall index); assay type: in vivo, Meloidogyne incognita; conditions: 20 ppm
Experimental: MBI-203 was tested for its intrinsic activity against the root knot nematode Meloidogyne sp. in two mini drench tests.
Specifically MBI-203 was tested in a greenhouse assay conducted in 45 ml pots. Cucumber seeds cv. Toshka were sown directly into pots filled with a sandy loam soil. Ten days later pots were each treated with 5 ml of a suspension. Hereafter, pots were inoculated with 3000 eggs of M. incognita. Four replicates were prepared for each treatment and rate. The trial was harvested fourteen days after trial application and inoculation. Root galling was assessed according to Zeck's gall index (Zeck, 1971). Specific conditions are set forth below in Table 3.

[6] = Trichoplusia ni, 96 h, read-out: % mortality Day 4

CNC(=O)c1cc(Cl)cc(C)c1NC(=O)c1cc(Br)nn1-c1ncccc1Cl [Chlorantranilipole]
Product alone Kill % ([1]; LC50 concentration): 3% | Product alone Kill % ([2]; LC50 concentration): 9.1%

O=C1NC(c2c[nH]c3ccccc23)=C/C1=C1\C(=O)Nc2ccccc21 [deoxyviolacein (3), deoxyviolacein]
activity in feeding bioassay (active compound) [3]: active

O=C1NC(c2c[nH]c3ccc(O)cc23)=C/C1=C1\C(=O)Nc2ccccc21 (single isomer, unassigned) [Violacein, violacein]
mortality at 1e-06 µg/disc [4, 6]: 14.2% | mortality at 1e-05 µg/disc [4, 6]: 71.4% | mortality at 0.0001 µg/disc [4, 6]: 100% | mortality at 0.001 µg/disc [4, 6]: 100% | mortality at 0.01 µg/disc [4, 6]: 100% | mortality at 0.1 µg/disc [4, 6]: 100% | mortality at 1 µg/disc [4, 6]: 100% | mortality at 10 µg/disc [4, 6]: 100% | estimated LC50 ([4]; in vivo): 7*10^−6 micrograms per well | activity in feeding bioassay (active compound) [3]: active

CCOC(=O)OC1=C(c2cc(C)ccc2C)C(=O)N[C@]12CC[C@@H](OC)CC2 [Spirotetramet]
Product alone Kill % ([1]; LC50 concentration): 23.8% | Product alone Kill % ([1]; Spirotetramet 0.5X LC50): 41.5% | Product alone Kill % ([2]; Spirotetramet 0.53X LC50): 42.9% | Product alone Kill % ([2]; Spirotetramet 1.4X LC50): 77.5%

chromamide A
activity in feeding bioassay (active compound) [3]: active

CCOP(=O)(SC(C)CC)N1CCSC1=O (stereo not shown) [Fosthiazate]
control ([5]; Mini drench test no. 1): 100% | control ([5]; Mini drench test no. 2): 100%

Spinosad
Product alone Kill % ([1]; LC50 concentration): 54.3% | Product alone Kill % ([2]; LC50 concentration): 68.7%
